Measurements: ChEMBL document CHEMBL1146740, “New analogue of arenastatin A, a potent cytotoxic spongean depsipeptide, with anti-tumor activity” (Bioorg Med Chem Lett, 2004)
≈ marks a conversion by molar mass, not a printed value.

Experiments:
[1] = system: Mus musculus; test: In vivo antitumor activity (reduction of tumor volume) was determined against lewis lung carcinoma, subcutaneously in mice at a dose of 5 mg/kg; format: functional; conditions: route intravenous
[2] = system: Mus musculus; test: In vivo antitumor activity (reduction of tumor volume) was determined against lewis lung carcinoma, subcutaneously in mice at a dose of 10 mg/kg; format: functional; conditions: route intravenous
[3] = In vivo antitumor activity (reduction of tumor volume) was determined over treated/control mice at a dose of 2.5 mg/kg; format: functional
[4] = In vivo antitumor activity (reduction of tumor volume) was determined over treated/control mice at a dose of 5 mg/kg; format: functional
[5] = system: KB 3-1; test: Inhibitory activity was evaluated for potent cytotoxic effect on KB-3-1 cells; format: functional, cell-based; conditions: Homo sapiens
[6] = system: Mus musculus; test: In vivo antitumor activity (reduction of tumor volume) was determined against lewis lung carcinoma, subcutaneously in mice at a dose of 2.5 mg/kg; format: functional; conditions: route intravenous
[7] = In vivo antitumor activity (reduction of tumor volume) was determined over treated/control mice at a dose of 10 mg/kg; format: functional
[8] = system: Mus musculus; test: In vivo antitumor activity (reduction of tumor volume) was determined against lewis lung carcinoma, subcutaneously in mice at a dose of 1.65 mg/kg; format: functional; conditions: route intravenous
[9] = In vivo antitumor activity (reduction of tumor volume) was determined over treated/control mice at a dose of 3.3 mg/kg; format: functional
[10] = In vivo antitumor activity (reduction of tumor volume) was determined over treated/control mice at a dose of 1.65 mg/kg; format: functional
[11] = system: Mus musculus; test: In vivo antitumor activity (reduction of tumor volume) was determined against lewis lung carcinoma, subcutaneously in mice at a dose of 3.3 mg/kg; format: functional; conditions: route intravenous

COc1ccc(C[C@H]2NC(=O)/C=C/C[C@@H]([C@H](C)[C@H]3O[C@@H]3c3ccccc3)OC(=O)[C@H](C(C)(C)C)OC(=O)CCNC2=O)cc1
Tumor volume [1]: 7.1 cm*3 | Tumor volume [2]: 4.9 cm*3 | T/C [3]: 0.96 | T/C [4]: 1.03 | IC50 [5]: 0.01 µg/mL (≈ 0.0165 µM) | Tumor volume [6]: 6.6 cm*3 | T/C [7]: 0.71

COc1ccc(C[C@H]2NC(=O)/C=C/C[C@@H]([C@H](C)[C@H]3O[C@@H]3c3ccccc3)OC(=O)[C@H](C(C)C)OC(=O)CCNC2=O)cc1
IC50 [5]: 0.03 µg/mL (≈ 0.0506 µM)

CO[C@@]12[C@H](COC(N)=O)C3=C(C(=O)C(C)=C(N)C3=O)N1C[C@@H]1N[C@@H]12 [MITOMYCIN]
Tumor volume [8]: 4.2 cm*3 | T/C [9]: 0.48 | T/C [10]: 0.62 | Tumor volume [11]: 3.3 cm*3
